The source made the active and inactive calls. The calls are words filed in the database; no cut-off is given here.
Legend:
[1] = Ionophoric activity across egg yolk L-alpha-phosphatidylcholine-based large unilamellar vesicles loaded with NaCl assessed as release of chloride ion after 300 seconds in presence of NaNO3 loaded external vesicles by electrode technique
[2] = Ionophoric activity across pyranine dye encapsulated pH 7 egg yolk L-alpha-phosphatidylcholine-based large unilamellar vesicles assessed as chloride ion transport by measuring induction of pH discharge in presence of NaCl loaded external vesicles by fluorescence method
[3] = Ionophoric activity across pyranine dye encapsulated pH 7 egg yolk L-alpha-phosphatidylcholine-based large unilamellar vesicles assessed as bromide ion transport by measuring induction of pH discharge in presence of NaBr loaded external vesicles by fluorescence method
[4] = Ionophoric activity across pyranine dye encapsulated pH 7 egg yolk L-alpha-phosphatidylcholine-based large unilamellar vesicles assessed as iodide ion transport by measuring induction of pH discharge in presence of NaI loaded external vesicles by fluorescence method
[5] = Ionophoric activity across pyranine dye encapsulated pH 7 egg yolk L-alpha-phosphatidylcholine-based large unilamellar vesicles assessed as nitrate ion transport by measuring induction of pH discharge in presence of NaNO3 loaded external vesicles by fluorescence method
[6] = Binding affinity to tetrabutylammonium chloride anion after 2 mins by spectrophotometric method
[7] = Binding affinity to tetramethylammonium sulfate anion after 2 mins by spectrophotometric method
[8] = Ionophoric activity across pyranine dye encapsulated pH 7 egg yolk L-alpha-phosphatidylcholine-based large unilamellar vesicles assessed as chloride ion transport by measuring initial rate constant for induction of pH discharge at 0.0313 mol% in presence of NaCl loaded external vesicles by fluorescence method (reference value: 0.81 +/- 0.22 10^-2/min)
[9] = Ionophoric activity across pyranine dye encapsulated pH 7 egg yolk L-alpha-phosphatidylcholine-based large unilamellar vesicles assessed as chloride ion transport by measuring initial rate constant for induction of pH discharge at 0.125 mol% in presence of NaCl loaded external vesicles by fluorescence method (reference value: 0.81 +/- 0.22 10^-2/min)
[10] = Ionophoric activity across pyranine dye encapsulated pH 7 egg yolk L-alpha-phosphatidylcholine-based large unilamellar vesicles assessed as chloride ion transport by measuring initial rate constant for induction of pH discharge at 0.25 mol% in presence of NaCl loaded external vesicles by fluorescence method (reference value: 0.81 +/- 0.22 10^-2/min)
[11] = Ionophoric activity across pyranine dye encapsulated pH 7 egg yolk L-alpha-phosphatidylcholine-based large unilamellar vesicles assessed as bromide ion transport by measuring initial rate constant for induction of pH discharge at 0.0156 mol% in presence of NaBr loaded external vesicles by fluorescence method (reference value: 2.08 +/- 0.19 10^-2/min)
[12] = Ionophoric activity across pyranine dye encapsulated pH 7 egg yolk L-alpha-phosphatidylcholine-based large unilamellar vesicles assessed as bromide ion transport by measuring initial rate constant for induction of pH discharge at 0.0313 mol% in presence of NaBr loaded external vesicles by fluorescence method (reference value: 2.08 +/- 0.19 10^-2/min)
[13] = Ionophoric activity across pyranine dye encapsulated pH 7 egg yolk L-alpha-phosphatidylcholine-based large unilamellar vesicles assessed as bromide ion transport by measuring initial rate constant for induction of pH discharge at 0.0625 mol% in presence of NaBr loaded external vesicles by fluorescence method (reference value: 2.08 +/- 0.19 10^-2/min)
[14] = Ionophoric activity across pyranine dye encapsulated pH 7 egg yolk L-alpha-phosphatidylcholine-based large unilamellar vesicles assessed as bromide ion transport by measuring initial rate constant for induction of pH discharge at 0.125 mol% in presence of NaBr loaded external vesicles by fluorescence method (reference value: 2.08 +/- 0.19 10^-2/min)
[15] = Ionophoric activity across pyranine dye encapsulated pH 7 egg yolk L-alpha-phosphatidylcholine-based large unilamellar vesicles assessed as iodide ion transport by measuring initial rate constant for induction of pH discharge at 0.0039 mol% in presence of NaI loaded external vesicles by fluorescence method (reference value: 3.52 +/- 0.22 10^-2/min)
[16] = Ionophoric activity across pyranine dye encapsulated pH 7 egg yolk L-alpha-phosphatidylcholine-based large unilamellar vesicles assessed as iodide ion transport by measuring initial rate constant for induction of pH discharge at 0.0078 mol% in presence of NaI loaded external vesicles by fluorescence method (reference value: 3.52 +/- 0.22 10^-2/min)
[17] = Ionophoric activity across pyranine dye encapsulated pH 7 egg yolk L-alpha-phosphatidylcholine-based large unilamellar vesicles assessed as iodide ion transport by measuring initial rate constant for induction of pH discharge at 0.0156 mol% in presence of NaI loaded external vesicles by fluorescence method (reference value: 3.52 +/- 0.22 10^-2/min)
[18] = Ionophoric activity across pyranine dye encapsulated pH 7 egg yolk L-alpha-phosphatidylcholine-based large unilamellar vesicles assessed as iodide ion transport by measuring initial rate constant for induction of pH discharge at 0.0313 mol% in presence of NaI loaded external vesicles by fluorescence method (reference value: 3.52 +/- 0.22 10^-2/min)
[19] = Ionophoric activity across pyranine dye encapsulated pH 7 egg yolk L-alpha-phosphatidylcholine-based large unilamellar vesicles assessed as iodide ion transport by measuring initial rate constant for induction of pH discharge at 0.0625 mol% in presence of NaI loaded external vesicles by fluorescence method (reference value: 3.52 +/- 0.22 10^-2/min)
[20] = Ionophoric activity across pyranine dye encapsulated pH 7 egg yolk L-alpha-phosphatidylcholine-based large unilamellar vesicles assessed as nitrate ion transport by measuring initial rate constant for induction of pH discharge at 0.01563 mol% in presence of NaNO3 loaded external vesicles by fluorescence method (reference value: 2.24 +/- 0.52 10^-2/min)
[21] = Ionophoric activity across pyranine dye encapsulated pH 7 egg yolk L-alpha-phosphatidylcholine-based large unilamellar vesicles assessed as nitrate ion transport by measuring initial rate constant for induction of pH discharge at 0.0625 mol% in presence of NaNO3 loaded external vesicles by fluorescence method (reference value: 2.24 +/- 0.52 10^-2/min)
[22] = Ionophoric activity across pyranine dye encapsulated pH 7 egg yolk L-alpha-phosphatidylcholine-based large unilamellar vesicles assessed as nitrate ion transport by measuring initial rate constant for induction of pH discharge at 0.125 mol% in presence of NaNO3 loaded external vesicles by fluorescence method (reference value: 2.24 +/- 0.52 10^-2/min)
[23] = Ionophoric activity across pyranine dye encapsulated pH 7 egg yolk L-alpha-phosphatidylcholine-based large unilamellar vesicles assessed as sulfate ion transport by measuring induction of pH discharge up to 3 mol% in presence of Na2SO4 loaded external vesicles by fluorescence method
[24] = Ionophoric activity across egg yolk L-alpha-phosphatidylcholine-based large unilamellar vesicles loaded with NaCl assessed as chloride transportat 1 mol% after 300 seconds in presence of NaSO4 loaded external vesicles by electrode technique
[25] = Binding affinity to tetrabutylammonium sulphate anion by 1H NMR spectrophotometric method

SMILES | Activity [1] | EC50 [2] [mol%] | EC50 [3] [mol%] | EC50 [4] [mol%] | EC50 [5] [mol%] | Ka [6] | logKa [6] | Ka [7] [×10⁵ /M] | logKa [7] | K [8] [×10⁻² /min] | K [9] [×10⁻² /min] | K [10] [×10⁻² /min] | K [11] [×10⁻² /min] | K [12] [×10⁻² /min] | K [13] [×10⁻² /min] | K [14] [×10⁻² /min] | K [15] [×10⁻² /min] | K [16] [×10⁻² /min] | K [17] [×10⁻² /min] | K [18] [×10⁻² /min] | other results
O=c1c(NCCN(CCNc2c(Nc3cc(C(F)(F)F)cc(C(F)(F)F)c3)c(=O)c2=O)CCNc2c(Nc3cc(C(F)(F)F)cc(C(F)(F)F)c3)c(=O)c2=O)c(Nc2cc(C(F)(F)F)cc(C(F)(F)F)c2)c1=O | Dose-dependent effect | 0.75 | 0.49 | 0.05 | 0.23 | 2.94 ×10³ /M | 3.47 | > 1 | > 5 | 1.32 | 2.57 | 3.87 | 2.22 | 2.89 | 3.85 | 6.24 | 3.7 | 4.41 | 5.92 | 7.67 | K [19]: 10.6 ×10⁻² /min; K [20]: 2.77 ×10⁻² /min; K [21]: 4.52 ×10⁻² /min; K [22]: 6.9 ×10⁻² /min; Activity [23]: inactive; Activity [24]: inactive
O=c1c(NCCN(CCNc2c(Nc3ccc(C(F)(F)F)cc3)c(=O)c2=O)CCNc2c(Nc3ccc(C(F)(F)F)cc3)c(=O)c2=O)c(Nc2ccc(C(F)(F)F)cc2)c1=O | Dose-dependent effect | 0.14 | 0.13 | 0.06 | 0.11 | 7.03 ×10² /M | 2.84 | 4.79 | 5.64 | 1.68 | 4.04 | 5.41 | 3.37 | 4.31 | 7.27 | 11 | 3.94 | 5.2 | 6.27 | 9.99 | K [19]: 14.5 ×10⁻² /min; K [20]: 3.17 ×10⁻² /min; K [21]: 7.45 ×10⁻² /min; K [22]: 11.4 ×10⁻² /min; Activity [23]: inactive; Activity [24]: inactive; logKa [25]: 4.87
